Experimental data from paper PMC9021288 (Nature Communications, 2022).
“And” between values parts separate entries of the source, which are not always exact repeats. Equal entries are not always repeated.

What was measured:
hKV 1.5 = biological target: T1, hKV 1.5 (Homo sapiens, UniProt P22460); experiment: Manual patch clamp; type: cell-based; conditions: for Charge / Peak current: single cells and Mean, mean
T1 construct: Metrion Biosciences
Procedure: (§1) Safety studies were performed by commercial services using their standard protocols. […] Genotoxicity was investigated using the Ames test (Bacterial Reverse Mutation Assay) (Covance Laboratories Ltd, North Yorkshire, England). In vitro mammalian cell micronucleus screening assay was studied in human peripheral blood lymphocytes (BioReliance Corporation, Rockville, USA). Cardiotoxicity was determined against the hERG channel in an automated patch clamp assay using the Qpatch or against the hNaV 1.5, hKV 1.5 and hCaV 1.2 using a manual patch-clamp technique (Metrion Biosciences, Cambridge, UK). Cytotoxicity in human and rat primary hepatocytes was assessed using the CellTiter-Blue assay performed by commercial services (KaLy-Cell). The viability of HepG2 cells was monitored through the addition of 1 mM resazurin. Following 6 h incubation, the relative amount of reduced resazurin was detected in a fluorimeter and compared to the assay controls (vehicle: 0.1% DMSO and positive control: 10 µM puromycin).

hNaV 1.5 = biological target: T2, hNaV 1.5 (Homo sapiens, UniProt Q14524); experiment: Manual patch clamp; type: cell-based; conditions: for Minimum current: single cells and Mean, mean
T2 construct: Metrion Biosciences
Procedure: as §1

hCaV 1.2 = biological target: T3, hCaV 1.2 (Homo sapiens, UniProt Q13936); experiment: Manual patch clamp; type: cell-based; conditions: for Minimum current: single cells and Mean, mean
T3 construct: Metrion Biosciences
T3 sequence (Q13936 whole entry): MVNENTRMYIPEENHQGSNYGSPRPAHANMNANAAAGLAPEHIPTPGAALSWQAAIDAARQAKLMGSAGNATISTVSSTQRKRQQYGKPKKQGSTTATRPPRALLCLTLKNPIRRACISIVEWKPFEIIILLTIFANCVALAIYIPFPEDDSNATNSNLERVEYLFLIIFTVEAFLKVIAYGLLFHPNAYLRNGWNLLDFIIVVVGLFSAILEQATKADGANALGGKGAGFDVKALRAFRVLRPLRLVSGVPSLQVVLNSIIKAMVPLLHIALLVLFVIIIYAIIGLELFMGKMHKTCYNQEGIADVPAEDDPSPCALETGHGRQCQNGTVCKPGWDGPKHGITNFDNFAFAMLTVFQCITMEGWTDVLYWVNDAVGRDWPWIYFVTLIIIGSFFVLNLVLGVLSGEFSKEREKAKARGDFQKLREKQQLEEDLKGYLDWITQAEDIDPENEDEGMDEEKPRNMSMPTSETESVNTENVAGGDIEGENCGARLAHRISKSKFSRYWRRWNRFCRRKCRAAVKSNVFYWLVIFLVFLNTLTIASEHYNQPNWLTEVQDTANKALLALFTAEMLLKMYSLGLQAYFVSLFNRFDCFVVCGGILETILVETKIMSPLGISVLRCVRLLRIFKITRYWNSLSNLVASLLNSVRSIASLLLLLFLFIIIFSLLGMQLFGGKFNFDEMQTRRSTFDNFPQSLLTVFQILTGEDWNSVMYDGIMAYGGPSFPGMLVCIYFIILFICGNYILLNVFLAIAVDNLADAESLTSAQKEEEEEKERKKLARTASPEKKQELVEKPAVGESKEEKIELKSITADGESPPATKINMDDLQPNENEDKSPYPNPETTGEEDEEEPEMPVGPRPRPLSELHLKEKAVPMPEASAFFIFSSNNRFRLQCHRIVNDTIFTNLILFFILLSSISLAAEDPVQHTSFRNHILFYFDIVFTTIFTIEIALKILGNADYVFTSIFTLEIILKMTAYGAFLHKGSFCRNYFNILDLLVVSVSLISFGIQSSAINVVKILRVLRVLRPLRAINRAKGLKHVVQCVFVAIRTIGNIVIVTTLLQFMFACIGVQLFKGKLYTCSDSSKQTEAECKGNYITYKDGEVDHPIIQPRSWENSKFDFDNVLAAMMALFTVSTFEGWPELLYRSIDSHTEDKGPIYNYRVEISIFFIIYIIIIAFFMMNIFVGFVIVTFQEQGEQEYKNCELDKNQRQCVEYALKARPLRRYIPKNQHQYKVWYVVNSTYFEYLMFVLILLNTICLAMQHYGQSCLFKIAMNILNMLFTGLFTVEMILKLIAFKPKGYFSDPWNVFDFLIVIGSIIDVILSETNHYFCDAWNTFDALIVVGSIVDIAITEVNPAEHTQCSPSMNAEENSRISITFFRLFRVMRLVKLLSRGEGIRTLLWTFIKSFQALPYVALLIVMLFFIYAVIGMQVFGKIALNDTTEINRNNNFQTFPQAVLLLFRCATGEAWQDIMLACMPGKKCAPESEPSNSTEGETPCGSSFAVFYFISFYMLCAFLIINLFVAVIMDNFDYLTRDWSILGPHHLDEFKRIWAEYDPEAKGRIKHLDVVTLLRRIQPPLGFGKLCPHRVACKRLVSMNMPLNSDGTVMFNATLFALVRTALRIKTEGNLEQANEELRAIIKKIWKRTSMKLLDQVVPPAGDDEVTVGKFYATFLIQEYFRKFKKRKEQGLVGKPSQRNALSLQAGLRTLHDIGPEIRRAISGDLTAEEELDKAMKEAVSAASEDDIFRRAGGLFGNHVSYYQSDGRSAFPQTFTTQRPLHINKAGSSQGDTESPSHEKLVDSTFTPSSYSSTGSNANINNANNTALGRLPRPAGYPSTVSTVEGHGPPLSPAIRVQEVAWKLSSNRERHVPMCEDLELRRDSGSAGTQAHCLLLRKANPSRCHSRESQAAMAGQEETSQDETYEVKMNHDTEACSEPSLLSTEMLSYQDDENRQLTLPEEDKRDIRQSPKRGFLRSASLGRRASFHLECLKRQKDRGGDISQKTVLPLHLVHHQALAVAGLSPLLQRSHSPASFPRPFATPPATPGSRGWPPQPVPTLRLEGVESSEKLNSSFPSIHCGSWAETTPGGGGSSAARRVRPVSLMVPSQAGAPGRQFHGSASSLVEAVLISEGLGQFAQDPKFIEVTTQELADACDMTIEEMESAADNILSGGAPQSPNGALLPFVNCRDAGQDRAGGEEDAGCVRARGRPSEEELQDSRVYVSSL
T3 sequence (Q08289 whole entry partner): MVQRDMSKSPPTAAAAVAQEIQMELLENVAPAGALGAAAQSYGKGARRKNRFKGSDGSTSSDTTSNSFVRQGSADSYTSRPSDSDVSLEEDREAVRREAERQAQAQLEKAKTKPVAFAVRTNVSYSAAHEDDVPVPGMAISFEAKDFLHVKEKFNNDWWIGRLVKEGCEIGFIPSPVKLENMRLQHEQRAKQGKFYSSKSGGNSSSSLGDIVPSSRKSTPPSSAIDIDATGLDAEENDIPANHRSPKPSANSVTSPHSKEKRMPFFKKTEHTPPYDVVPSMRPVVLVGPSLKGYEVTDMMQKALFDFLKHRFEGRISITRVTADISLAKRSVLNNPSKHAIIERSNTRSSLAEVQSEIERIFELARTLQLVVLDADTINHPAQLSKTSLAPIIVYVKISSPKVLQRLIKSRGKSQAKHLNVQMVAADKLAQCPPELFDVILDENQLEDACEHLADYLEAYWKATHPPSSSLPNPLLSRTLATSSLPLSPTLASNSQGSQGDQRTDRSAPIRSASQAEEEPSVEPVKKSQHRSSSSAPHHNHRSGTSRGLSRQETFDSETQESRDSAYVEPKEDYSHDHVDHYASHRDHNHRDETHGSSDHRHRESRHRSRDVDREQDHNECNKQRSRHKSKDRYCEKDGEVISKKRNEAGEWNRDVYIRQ
T3 sequence (P54289 25-946 partner limits assumed): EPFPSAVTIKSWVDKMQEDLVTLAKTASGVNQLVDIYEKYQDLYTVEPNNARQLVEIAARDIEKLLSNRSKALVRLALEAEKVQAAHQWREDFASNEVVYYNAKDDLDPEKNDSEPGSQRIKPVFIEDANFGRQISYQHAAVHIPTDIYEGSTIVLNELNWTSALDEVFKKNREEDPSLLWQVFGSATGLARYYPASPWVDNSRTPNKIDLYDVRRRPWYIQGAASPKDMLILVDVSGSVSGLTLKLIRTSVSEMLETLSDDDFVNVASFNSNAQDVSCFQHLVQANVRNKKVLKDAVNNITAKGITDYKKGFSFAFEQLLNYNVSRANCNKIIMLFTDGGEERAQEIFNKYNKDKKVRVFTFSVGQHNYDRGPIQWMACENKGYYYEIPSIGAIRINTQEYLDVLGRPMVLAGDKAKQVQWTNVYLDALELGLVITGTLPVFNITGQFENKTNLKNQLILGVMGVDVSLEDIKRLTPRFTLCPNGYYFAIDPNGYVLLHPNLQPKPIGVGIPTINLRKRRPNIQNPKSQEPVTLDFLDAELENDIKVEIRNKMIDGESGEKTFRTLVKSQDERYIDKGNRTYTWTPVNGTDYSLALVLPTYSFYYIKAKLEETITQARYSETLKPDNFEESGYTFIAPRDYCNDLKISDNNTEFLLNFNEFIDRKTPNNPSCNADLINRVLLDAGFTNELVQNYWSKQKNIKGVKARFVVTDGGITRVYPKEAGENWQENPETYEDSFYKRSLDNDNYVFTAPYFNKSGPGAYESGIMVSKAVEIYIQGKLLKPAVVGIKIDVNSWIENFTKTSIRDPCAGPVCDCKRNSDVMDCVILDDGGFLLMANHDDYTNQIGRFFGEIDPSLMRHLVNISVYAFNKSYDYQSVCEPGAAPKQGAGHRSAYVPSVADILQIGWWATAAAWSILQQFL
T3 sequence (P54289 947-1103 partner limits assumed): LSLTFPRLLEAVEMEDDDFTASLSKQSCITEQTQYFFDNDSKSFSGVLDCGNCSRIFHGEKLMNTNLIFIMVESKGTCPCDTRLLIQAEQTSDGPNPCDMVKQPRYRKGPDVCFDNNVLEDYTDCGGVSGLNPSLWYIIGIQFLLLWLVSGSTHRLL
Procedure: as §1

Caco-2 = Caco-2 permeability assay; conditions: pH 7.4/7.4
[1] = 7-day PK toxicity rat study; type: in vivo, Wistar Han rats; parameters: AUC(0 - t) / Cmax / Concentration (PK study): unit not given here
Description: See the summary of the study design in Supplementary Table 31. Nine-week-old Wistar (Crl:WI (Han)) rats were obtained from Charles River Laboratories (Domaine des Oncins, Saint-Germain-Nuelles, France). […] Animals were examined daily for any altered clinical signs, body weights, and food consumption. Blood samples were taken at different timepoints after the test item administration, and toxicokinetic exposure assessed under the defined experimental conditions and analyzed using Phoenix (version 6.4 and 1.4) (Supplementary Table 32). Measurements included hematology and clinical chemistry measurements. Animals were euthanized and necropsied at the end of the dosing period. At necropsy, major organ systems and tissues were collected and weighed and then examined for gross lesions as well as for microscopic changes.

[2] = system: P. falciparum 3D7 trophozoite-infected RBCs, CoA pathway metabolites; experiment: Metabolomics of treated infected RBCs (LC/MS); type: cell-based, Plasmodium falciparum
Procedure: P. falciparum metabolomics analysis was performed by LC/MS as previously described. Briefly, parasite cultures were tightly synchronized at the ring stage one cycle prior to extraction. Trophozoite cultures at 5-10% parasitemia were purified to >90% parasitemia by magnetic purification. Parasites were counted using a hemocytometer, aliquoted to 1 × 10^8 cells per condition in 5 ml medium and then placed into an incubator for 1 h to allow them to reach a metabolically stable state. […] Blank processing samples were also quenched in the same manner to assess background metabolite levels. The samples were centrifuged, the supernatant was collected in a new tube, dried using a nitrogen gas drying rack and stored at -80 °C until they were run on the LC/MS platform.
For each analytical run, a pooled sample was generated by combining equivalent volumes of each parasite sample to assess metabolite detection and run at the beginning, middle, and end of each analytical batch to detect any possible time-dependent sensitivity changes. The full metabolomics datasets are publicly available on the Metabolomics Workbench database under ST001985[76].

hERG channel = biological target: T4, hERG channel (Homo sapiens, UniProt Q12809); experiment: Automated patch clamp (Qpatch); type: cell-based
T4 construct: Metrion Biosciences
Procedure: as §1

T1 sequence (P22460 whole entry): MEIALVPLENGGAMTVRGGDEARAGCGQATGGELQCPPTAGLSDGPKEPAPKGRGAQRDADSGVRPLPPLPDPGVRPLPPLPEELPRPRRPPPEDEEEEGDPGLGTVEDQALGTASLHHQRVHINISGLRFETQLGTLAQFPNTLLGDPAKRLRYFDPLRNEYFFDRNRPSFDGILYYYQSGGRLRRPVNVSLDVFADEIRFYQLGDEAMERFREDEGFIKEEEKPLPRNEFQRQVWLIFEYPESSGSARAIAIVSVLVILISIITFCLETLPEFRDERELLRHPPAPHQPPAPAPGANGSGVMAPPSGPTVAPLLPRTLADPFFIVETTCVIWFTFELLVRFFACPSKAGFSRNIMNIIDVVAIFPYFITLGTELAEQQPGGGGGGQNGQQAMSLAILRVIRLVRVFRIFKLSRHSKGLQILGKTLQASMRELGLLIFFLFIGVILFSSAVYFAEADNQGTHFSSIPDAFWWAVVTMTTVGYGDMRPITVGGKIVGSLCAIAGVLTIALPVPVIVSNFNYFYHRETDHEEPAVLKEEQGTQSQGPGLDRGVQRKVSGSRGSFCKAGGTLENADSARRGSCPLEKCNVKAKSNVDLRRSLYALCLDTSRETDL

## C[C@@H](CNC(=O)[C@H](O)C(C)(C)CO)NC(=O)c1cc(F)c(F)cc1F [MMV693183]
hKV 1.5; 10 µM
  Inhibition: 2.15%
hKV 1.5; hKV 1.5
  IC50: > 10 µM
hKV 1.5; hKv1.5, 300nM
  Charge: 4.53%
  Peak current: 0.19%
hKV 1.5; hKv1.5, 1uM
  Peak current: 1.06%
hKV 1.5; hKv1.5, 3uM
  Charge: 8.60%
  Peak current: 0.58%
hKV 1.5; hKv1.5, 10uM
  Peak current: 2.15%
hNaV 1.5; 10 µM
  Inhibition: 1.56%
hNaV 1.5; hNav 1.5
  IC50: > 10 µM
hNaV 1.5; hNav1.5, 300nM, P1
  Minimum current: 1.33%
hNaV 1.5; hNav1.5, 300nM, P10
  Minimum current: 2.55%
hNaV 1.5; hNav1.5, 1uM, P10
  Minimum current: 0.96%
hNaV 1.5; hNav1.5, 3uM, P1
  Minimum current: -2.90%
hNaV 1.5; hNav1.5, 3uM, P10
  Minimum current: 2.43%
hNaV 1.5; hNav1.5, 10uM, P1
  Minimum current: -1.24%
hNaV 1.5; hNav1.5, 10uM, P10
  Minimum current: 1.56%
hCaV 1.2; 10 µM
  Inhibition: 24.20%
hCaV 1.2; Cav1.2, 0.3uM
  Minimum current: 4.49%
hCaV 1.2; Cav1.2, 1uM
  Minimum current: 7.60%
hCaV 1.2; Cav1.2, 10uM
  Minimum current: 24.20%
hCaV 1.2; hCaV 1.2
  IC50: > 10 µM
Caco-2
  Average Papp A to B: 2.9e-06 s⁻¹
  Average Papp B to A: 1.35e-05 s⁻¹
  Efflux ratio: 4.7
[1]; 60, 200 mg/kg/day, 7 days
  mortality: no mortality occurred
[1]; PK 60 mg/kg/day, Females
  Liver weight: 6.5972 g
[1]; PK 60 mg/kg/day, Males
  Liver weight: 11.4290 g
[1]; PK 200 mg/kg/day, Females
  Liver weight: 8.4371 g
[1]; PK 200 mg/kg/day, Males
  Liver weight: 13.5439 g
[1]; PK study, Females 60 mg/kg/day, Day 4, 8 hr
  Concentration (PK study): 867 and 896 and 826
[1]; PK study, Females 60 mg/kg/day, Day 5, 8 hr
  Concentration (PK study): 531 and 997 and 950
[1]; PK study, Females 60 mg/kg/day, Day 6, 8 hr
  Concentration (PK study): 642 and 776
[1]; PK study, Females 60 mg/kg/day, Day 7, 8 hr
  Concentration (PK study): 936 and 1060 and 1050
[1]; PK study, Females 200 mg/kg/day, Day 1, 0.5 hr
  Concentration (PK study): 81400 and 80500 and 68400
[1]; PK study, Females 200 mg/kg/day, Day 1, 1 hr
  Concentration (PK study): 65500 and 65700 and 66800
[1]; PK study, Females 200 mg/kg/day, Day 1, 4 hr
  Concentration (PK study): 12200 and 17800 and 10500
[1]; PK study, Females 200 mg/kg/day, Day 3, 0.5 hr
  Concentration (PK study): 70400 and 75700 and 61100
[1]; PK study, Females 200 mg/kg/day, Day 3, 2 hr
  Concentration (PK study): 18000 and 10900 and 12000
[1]; PK study, Females 200 mg/kg/day, Day 3, 8 hr
  Concentration (PK study): 2420 and 2030 and 1670
[1]; PK study, Females 200 mg/kg/day, Day 4, 0.5 hr
  Concentration (PK study): 47900 and 69400 and 35700
[1]; PK study, Females 200 mg/kg/day, Day 4, 8 hr
  Concentration (PK study): 1340 and 729 and 914
[1]; PK study, Females 200 mg/kg/day, Day 4, 24 hr
  Concentration (PK study): LLoQ
[1]; PK study, Females 200 mg/kg/day, Day 5, 2 hr
  Concentration (PK study): 3640 and 1960 and 3540
[1]; PK study, Females 200 mg/kg/day, Day 5, 24 hr
  Concentration (PK study): LLoQ
[1]; PK study, Females 200 mg/kg/day, Day 6, 0.5 hr
  Concentration (PK study): 17200 and 19900 and 13800
[1]; PK study, Females 200 mg/kg/day, Day 6, 1 hr
  Concentration (PK study): 5360 and 3620 and 4830
[1]; PK study, Females 200 mg/kg/day, Day 6, 2 hr
  Concentration (PK study): 2060 and 2560
[1]; PK study, Females 200 mg/kg/day, Day 6, 4 hr
  Concentration (PK study): 1070 and 1300 and 1240
[1]; PK study, Females 200 mg/kg/day, Day 6, 24 hr
  Concentration (PK study): LLoQ
[1]; PK study, Females 200 mg/kg/day, Day 7, 0.5 hr
  Concentration (PK study): 16600 and 15200 and 10900
[1]; PK study, Females 200 mg/kg/day, Day 7, 1 hr
  Concentration (PK study): 7160 and 4910 and 4560
[1]; PK study, Females 200 mg/kg/day, Day 7, 8 hr
  Concentration (PK study): 446 and 524 and 294
[1]; PK study, Females 200 mg/kg/day, Day 7, 24 hr
  Concentration (PK study): LLoQ
[1]; PK study, Males 60 mg/kg/day, Day 1, 1 hr
  Concentration (PK study): 20300 and 24600 and 25700
[1]; PK study, Males 60 mg/kg/day, Day 1, 2 hr
  Concentration (PK study): 8920
[1]; PK study, Males 60 mg/kg/day, Day 1, 8 hr
  Concentration (PK study): 595 and 761 and 549
[1]; PK study, Males 60 mg/kg/day, Day 3, 0.5 hr
  Concentration (PK study): 8790 and 10300 and 7140
[1]; PK study, Males 60 mg/kg/day, Day 3, 1 hr
  Concentration (PK study): 5740 and 6580 and 9120
[1]; PK study, Males 60 mg/kg/day, Day 4, 1 hr
  Concentration (PK study): 4970 and 6410 and 5310
[1]; PK study, Males 60 mg/kg/day, Day 4, 2 hr
  Concentration (PK study): 2150
[1]; PK study, Males 60 mg/kg/day, Day 5, 0.5 hr
  Concentration (PK study): 4090 and 5780 and 6430
[1]; PK study, Males 60 mg/kg/day, Day 5, 1 hr
  Concentration (PK study): 2810 and 3810 and 4490
[1]; PK study, Males 60 mg/kg/day, Day 5, 2 hr
  Concentration (PK study): 833
[1]; PK study, Males 60 mg/kg/day, Day 6, 0.5 hr
  Concentration (PK study): 3190 and 3990 and 2700
[1]; PK study, Males 60 mg/kg/day, Day 6, 1 hr
  Concentration (PK study): 2440 and 2560 and 2960
[1]; PK study, Males 60 mg/kg/day, Day 6, 2 hr
  Concentration (PK study): 793
[1]; PK study, Males 60 mg/kg/day, Day 7, 0.5 hr
  Concentration (PK study): 4630 and 4120 and 3030
[1]; PK study, Males 60 mg/kg/day, Day 7, 1 hr
  Concentration (PK study): 2360 and 3070 and 4490
[1]; PK study, Males 60 mg/kg/day, Day 7, 2 hr
  Concentration (PK study): 852
[1]; PK study, females, 60 mg/kg/day, individual animals
  Liver weight: 7.845 g and 6.555 g and 7.19 g and 6.045 g and 7.197 g and 6.726 g and 6.103 g and 6.171 g and 6.163 g and 5.278 g and 7.062 g and 7.17 g and 6.744 g and 6.318 g and 6.169 g and 6.575 g and 6.983 g and 6.456 g
[1]; PK study, females, 200 mg/kg/day, individual animals
  Liver weight: 8.221 g and 8.493 g and 7.964 g and 8.859 g and 9.347 g and 7.27 g and 8.193 g and 8.745 g and 8.636 g and 8.349 g and 8.711 g and 8.055 g and 7.728 g and 8.238 g and 8.802 g and 8.338 g and 9.482 g
[1]; PK study, males, 60 mg/kg/day, individual animals
  Liver weight: 11.319 g and 10.601 g and 11.37 g and 12.154 g and 11.768 g and 12.437 g and 11.213 g and 11.313 g and 11.86 g and 10.827 g and 10.923 g and 10.921 g and 10.76 g and 12.104 g and 11.841 g and 10.238 g and 12.991 g and 11.082 g
[1]; PK study, males, 200 mg/kg/day, individual animals
  Liver weight: 14.027 g and 16.129 g and 13.438 g and 12.573 g and 14.48 g and 14.447 g and 11.375 g and 14.317 g and 13.757 g and 13.38 g and 14.677 g and 13.312 g and 12.998 g and 12.7 g and 12.791 g and 13.174 g and 13.587 g and 12.628 g
[1]; day 3 to day 7 vs day 1
  decrease of exposure at later timepoints: up to 11 fold
[1]; in order: females 60, 200 mg/kg/day
  Increased mitoses, hepatocellular: animals affected: 1
[1]; in order: males 60, 200 (n=18), females 60 (n=18), 200 (n=17) mg/kg/day
  Hypertrophy, centrilobular: animals affected: 18 and 14 and 17
[1]; in order: males 60, 200, females 60, 200 mg/kg/day
  Extramedullary hematopoiesis: animals affected: 10 and 14 and 9 and 13
[1]; in order: males 60, females 60, 200 mg/kg/day
  Necrosis, hepatocellular: animals affected: 1
[2]; 24 nM
  Fold change 4'P-Pan: 0.6372 and 0.7412
  Fold change Ac-CoA: 0.5886 and 0.6667
  Fold change CoA: 1.122
  Fold change Pan: 0.8146 and 0.8416
[2]; 240 nM
  Fold change 4'P-Pan: 0.3498 and 0.3568
  Fold change CoA: 1.064
  Fold change Pan: 1.253 and 0.7224
[2]; dose-dependent
  effect on endogenous metabolites: reduced acetyl-CoA and 4-phosphopantothenate levels
hERG channel
  IC50: > 10 µM
